Assay results reported in US10393730B2, “Energy malnutrition evaluation for liver disease test subject” (OTSUKA PHARMACEUTICAL CO., LTD., priority 2014, dated 2019).

Key:
[1] = non-fasting period and fasting period, control group versus liver cirrhosis model group, 2 mL/kg i.v., 0-120 minutes
Experimental: CCl4 (olive oil: CCl4=1:1) was administered subcutaneously to the dorsal regions of male SD rats (10 weeks of age: n=3) in an amount of 2 mL/kg twice a week for 12 weeks, thereby creating liver cirrhosis model rats. With a biogas analysis device (product name: Oxymax, Columbus Instruments), respiratory quotient and energy consumption of untreated rats (control group) and liver cirrhosis model rats (liver cirrhosis model group) were measured and calculated according to the instructions of the device.
Further, both the untreated rats and the liver cirrhosis model rats were fed from 19:00 on Day 1 of the test to 13:00 on Day 3, and were fasted from 13:00 on Day 3 to 13:00 on Day 4, as shown in FIG. 1 shown later. During the non-fasting period, the rats were allowed free access to feed (product name: CRF-1, Oriental Yeast Co., Ltd.). […]
The above-prepared ^13C-palmitic acid-containing composition was individually intravenously administered to the liver cirrhosis model rats and untreated rats prepared in the above Reference Example in an amount of 2 mL/kg (n=3). […] Expired air was collected at time points between before administration (0 minutes) to 120 minutes after the administration of ^13C-palmitic acid-containing composition. Δ^13C(‰) was measured and determined using an expired air analysis mass spectrometer (ABCA: product of Sercon).

[2] = set-up: species or system male SD rats (liver cirrhosis model rats and untreated rats); conditions: rat, in vivo, iv
Experimental: U-^13C-glucose (MW: 186, Cambridge Isotope Laboratories, Inc.) was dissolved in a physiological saline solution at a concentration of 50 μmol/ml, thereby preparing a ^13C-glucose-containing composition.

| SMILES | expired air reaction (Δ^13C(‰)) [1] | expired air reaction (Δ^13C(‰)), day versus night [2] |
| --- | --- | --- |
| CCCCCCCCCCCCCCC[13C](=O)[O-].[Na+] [1-^13C-sodium palmitate] | showed similar transitions in the control group and the liver cirrhosis model group | – |
| OC[C@H]1OC(O)[C@H](O)[C@@H](O)[C@@H]1O (some centres unmarked) [^13C-glucose-containing composition, U-^13C-glucose] | – | a significant difference in the expired air reaction (Δ^13C(‰)) was not observed between day and night |
